The values below are quoted from earlier work in patent US20230313389A1, “APPARATUS AND METHOD FOR THE ELECTROLYTIC PRODUCTION OF HYPOCHLOROUS ACID” (GROUPE OXWELL INC., priority 2020, published 2023).

The conditions of data set [1]: as disinfectant.
For data set [2], the system named is viruses, including coronaviruses. Conditions: variety of viruses.
For data set [3] the following is noted: under ideal conditions.

With `OCl` [HOCl, Hypochlorous acid], the “effectiveness relative to chlorine in the form of ClO-” value in data set [1] is 100 times. In data set [2], the “time to inactivate viruses” value is reported as “less than 1 minute”. The “shelf life (time HOCl is effective)” value in data set [3] is recorded as “up to 2 weeks”.
